Measured values as given in patent publication US20040157818A1, “Cxcr4-antagonistic drugs composed of nitrogen-containing compound” (priority 2001, published 2004).

Experiments:
ICR mice = test: Acute toxicity in ICR mice; type: in vivo; conditions: 50 mg/kg intraperitoneally twice a day for 4 days; dead mice after 5 days; male ICR mice, three animals per group
Procedure: The CXCR4-antagonist or the salt thereof of the present invention is intraperitoneally injected in to an ICR mouse ([…]) twice a day for 4 consecutive days, and no lethal case was found after 5 days. Therefore, the conclusion can be drawn that there is no acute toxicity.
7-week old ICR mice (male) (obtained from Charls River Japan Inc) were divided into three-animals for each groups. After domestication-breeding for 1 week, the compound of the coresponding Synthesis Example was dissolved in a physiological salt solution or distilled water and the solution was then intraperitoneally dosed twice a day for 4 days (50 mg/kg in dosage).

CXCR4 = molecular target: T1, CXCR4 (Homo sapiens, UniProt P61073); test: CXCR4-binding inhibition activity (125I-SDF-1α binding to MT-4 cells); conditions: 0.1 μM test material, ligand 125I-SDF-1α, 2 hours under ice cold condition
T1 construct: endogenous in cells; host or cells: MT-4 cells
Procedure: CXCR4-Binding Inhibition Activity
MT-4 cells (5×10^6/0.2 ml/well) were cultured on a 24-well microtiter plate. After the cells were incubated for 24 hours at 37° C. in a carbon dioxide gas incubator, a culture mediumwas replaced with a buffer solution (RPMI-1640 containing 0.1% BSA). Together with a ligand ^125I-SDF-1α (specific activity: 2,2000 Ci/mmol; DAIICHI PURE CHEMICALS CO. ,LTD. (Tokyo)), various concentrations of test materials were subjected to a binding reaction for 2 hours under ice cold condition.

[1] = system: type-II collagen-induced arthritis mouse; test: Drug efficacy test on type-II collagen-induced arthritis (CIA) mouse; type: in vivo
Procedure: Drug Efficacy Test of the Compound No. 86 on Type-II Collagen-Induced Arthritis Mouse
Using the type-II collagen-induced mouse arthritis (CIA) model, which was a model of articular rheumatism (RA), the compound No. 86 was tested for drug efficacy.
24 of 6-week-oldmale DBA/l mice (obtained from Charles River Japan, Inc.) were used as test animal and were divided in groups of 12 animals, that is, a test group of and a control group, such that the average weights of the respective groups were almost equal to each other.
An initial-sensitizing antigen solution used was a liquid of adjusted emulsion prepared by dissolving chicken type-II collagen (obtained from Collagen Gijyutu Kensyuukai) in 0.01N acetic acid (4mg/mL) andthenmixingwith an equal amount of Freund's complete adjuvant (manufactured by Difco BRL), and an additional-sensitizing antigen solution used was a liquid of emulsion prepared by dissolving chicken type-II collagen in 0.01N acetic acid (8 mg/mL), and then mixing with an equal amount of Freund's complete adjuvant.
An initial sensitization was performed by endodermic injection of 50 μl of the initial-sensitizing antigen solution (containing 100 μg of chicken type-II collagen) into the tail of the mouse. The additional sensitization was performed after 21 days from the initial sensitization by endodermic injection of 50 μl of the additional-sensitizing antigen solution (containing 200 μg of chicken type-II collagen) into the tail of the mouse.
The compound No. 86, which was provided as a test material, was provided as one at a concentration of 5 mg/mL prepared by dissolving ditartrate thereof in a physiological saline solution. The test material was administered such that the test material was interperitoneally administered once a day for consecutive 17 days from 2 days before the additional sensitization (an amount of administered liquid was 10 mL/kg). In addition, for the control group, the test material was administered by dissolving ditartrate in a physiological saline solution so as to make the concentration of tartaric acid of 1.7 mg/mL because a dosage solvent is ditartrate for the test material compound No. 86.
Amacroscopic observation on extremities after the additional sensitization was performed once a day. A scoring of the macroscopic observation was according to the following criteria and judged on each of extremities with respect to edema of foot. The total of the scores of extremities was provided as an index of the onset of symptoms and pharmacometrics with respect to arthritis. In addition, the total of the numbers of fingers of each extremity on which edema was observed was also used as an index of pharmacometrics.
In addition, the scores in FIG. 6 were defined as follows: […]

T1 sequence (P61073 whole entry): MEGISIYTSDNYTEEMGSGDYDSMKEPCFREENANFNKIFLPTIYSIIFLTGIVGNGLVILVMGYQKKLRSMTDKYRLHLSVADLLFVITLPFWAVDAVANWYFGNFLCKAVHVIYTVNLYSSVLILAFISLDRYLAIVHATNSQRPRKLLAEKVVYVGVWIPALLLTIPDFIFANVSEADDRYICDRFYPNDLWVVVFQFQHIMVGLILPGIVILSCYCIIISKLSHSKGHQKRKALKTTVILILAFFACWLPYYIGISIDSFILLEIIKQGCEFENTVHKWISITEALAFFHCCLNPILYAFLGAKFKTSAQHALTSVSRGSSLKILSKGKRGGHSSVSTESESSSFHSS

Row | Structure (SMILES) | Number of dead mice (ICR mice) | inhibition rate (binding-inhibition % at 0.1 μM) (CXCR4) [%] | further results
1 | O=C(N[C@@H](CCCNC1CCCc2cccnc21)C(=O)NCc1cccc2ccccc12)c1ccc(CNCc2ncc[nH]2)cc1 (stereo partly drawn) [Compound No. 39, (2S)-2-(4-((N-imidazol-2-ylmethyl)aminomethyl)benzoylamino)-5-(5,6,7,8-tetrahydroquinolin-8-ylamino)valerate 1-naphthalenemethylamide] | 0/3 | – | –
2 | O=C(N[C@@H](CCCNC1CCCc2cccnc21)C(=O)NCc1cccc2ccccc12)c1ccc(CNCc2ncc[nH]2)c2ccccc12 (stereo partly drawn) [Compound No. 41, (2S)-2-(4-((N-imidazol-2-ylmethyl)aminomethyl)naphthoylamino)-5-(5,6,7,8-tetrahydroquinolin-8-ylamino)valerate 1-naphthalenemethylamide] | 0/3 | 97.9 | –
3 | C[C@H](NC(=O)[C@H](CCCNC(=N)N)NC(=O)c1ccc(CNCc2ncc[nH]2)c2ccccc12)c1cccc2ccccc12 [Compound No. 49, N^α-(4-(imidazol-2-ylmethyl)aminomethylnaphthoyl)-L-arginine (1′S)-(1′-(1-naphthyl)ethyl)amide] | 0/3 | 97.8 | –
4 | C[C@H](NC(=O)[C@H](CCCNC1CCCc2cccnc21)NC(=O)c1ccc(CNCc2ncc[nH]2)c2ccccc12)c1cccc2ccccc12 (some centres unmarked) [Compound No. 57] | 0/3 | 97.8 | –
5 | O=C(N[C@@H](CCCNC1CCCc2cccnc21)C(=O)NCc1cccc2ccccc12)c1ccc(CNCc2ccccn2)cc1 (stereo partly drawn) [Compound No. 65, (2S)-2-(4-(N-2-picolylaminomethyl)benzoylamino)-5-((5,6,7,8-tetrahydroquinolin-8-yl)amino)valerate 1-naphthalenemethylamide] | 0/3 | 75.1 | –
6 | C[C@H](NC(=O)[C@H](CCCN=C(N)N)NC(=O)c1ccc(CNCc2ccccn2)cc1)c1cccc2ccccc12 [Compound No. 86, N^α-(4-(N-2-picolylaminomethyl)benzoyl)-L-arginine(1′S)-1′-(1-naphthyl)ethylamide] | 0/3 | 91.4 | lesion score of extremities (arthritis score) ([1]; 5 mg/mL, 10 mL/kg intraperitoneally once a day for 17 days from 2 days before additional sensitization, observed 12 days after additional sensitization, vs control group): tended to inhibit a chronological increase; change in animal body weights ([1]; 5 mg/mL, 10 mL/kg intraperitoneally once a day for 17 days, CIA mice): no influence was found; number of edematous fingers (chronological increase) ([1]; 5 mg/mL, 10 mL/kg intraperitoneally once a day for 17 days, observed 12 days after additional sensitization, vs control group): tended to inhibit a chronological increase; increase in number of edematous fingers ([1]; after 12 days from the additional sensitization, vs control group): significantly inhibited
7 | O=C(N[C@@H](CCCNC1CCCc2cccnc21)C(=O)NCCc1c[nH]c2ccccc12)c1ccc(CNCc2ccccn2)c2ccccc12 (stereo partly drawn) [Compound No. 92, (2S)-2-(4-(N-2-picolylaminomethyl)naphthoyl)amino-5-(5,6,7,8-tetrahydroquinolin-8-yl)amino valerate 2-(3-indolyl)ethylamide] | 0/3 | – | –
8 | Cn1ccnc1CNCc1ccc(C(=O)N[C@@H](CCCNC2CCCc3cccnc32)C(=O)NCc2cccc3ccccc23)cc1 (stereo partly drawn) [Compound No. 96, (2S)-2-((1-methylimidazol-2-ylmethyl)aminomethyl) benzoylamino-5-(5,6,7,8-tetrahydroquinolyl-8-yl)amino valerate 1-naphthalene methyleneamide] | 0/3 | 96.8 | –
9 | C[C@H](NC(=O)[C@H](CCCNC(=N)N)NC(=O)c1ccc(CNCc2nccn2C)c2ccccc12)c1cccc2ccccc12 [Compound No. 97, N^α-(4-((N-(1-methylimidazol-2-ylmethyl)amino)methyl)naphthalene-1-carbonyl)-L-arginine(1′S)-1′-(1-naphthyl)ethylamide] | 0/3 | 100.0 | –
10 | C[C@H](NC(=O)[C@H](CCCNC(=N)N)NC(=O)c1ccc(CNCc2ccccn2)c2ccccc12)c1cccc2ccccc12 [Compound No. 99, N^α-(4-(N-2-picolylaminomethyl)naphthoyl)-L-arginine(1′S)-1′-(1-naphthyl)ethylamide] | 0/3 | 76.4 | –
11 | O=C(N[C@@H](CCCN[C@H]1CCCc2cccnc21)C(=O)NCc1cccc2ccccc12)c1ccc(CNCc2ccccn2)c2ccccc12 [Compound No. 105, (2S)-2-(4-(N-2-picolylaminomethyl)naphthalene-1-carbonyl)amino-5-((8S)-5,6,7,8-tetrahydroquinolin-8-yl)amino valerate 1-naphthylmethylamide] | – | 91.9 | –
12 | C[C@H](NC(=O)[C@H](CCCNC1CCCc2cccnc21)NC(=O)c1ccc(CNCc2ncc[nH]2)cc1)c1cccc2ccccc12 (some centres unmarked) [Compound No. 106] | 0/3 | 100.0 | –
13 | C[C@H](NC(=O)[C@H](CCCNC1CCCc2cccnc21)NC(=O)c1ccc(CNCc2nccn2C)cc1)c1cccc2ccccc12 (some centres unmarked) [Compound No. 107] | 0/3 | 96.5 | –
14 | C[C@H](NC(=O)[C@H](CCCNC1=NCCN1)NC(=O)c1ccc(CNCc2ncc[nH]2)cc1)c1cccc2ccccc12 [Compound No. 110, (S)-2-(4-((N-imidazol-2-ylmethyl)aminomethyl)benzoyl)amino-5-(4,5-dihydroimidazol-2-yl)amino valerate(1′S)-1′-(1-naphthyl)ethylamide] | – | 75.7 | –
15 | C[C@H](NC(=O)[C@H](CCCNC1=NCCCN1)NC(=O)c1ccc(CNCc2ncc[nH]2)cc1)c1cccc2ccccc12 [Compound No. 112, (S)-2-(4-((N-imidazol-2-ylmethyl)aminomethyl)benzoyl)amino-5-(3,4,5,6-tetrahydropyrimidin-2-yl)amino valerate(1′S)-1′-(1-naphthyl)ethylamide] | – | 84.2 | –
